{"source": "PubChem BioAssay AID1963834", "about": "(Molecular Pharmacology Branch, DTP, NCI, 2024)", "system": "873145-292-R-J1-PDC complex spheroid viability", "experiment": "Anticancer human tumor 873145-292-R-J1-PDC patient-derived renal clear cell carcinoma cell line growth inhibition [POLQ]", "conditions": "for IC50: curve of first compound; for viability, T/C: stronger effect = lower value", "procedure": "Multicellular complex tumor spheroid response to Polymerase (POL) inhibitors (novobiocin, ART-558, RP6685) in combination with a variety of drugs and investigational agents in selected tumor cell lines\nThe POL inhibitors (novobiocin, ART-558, and RP6685) were evaluated both individually and in combination with standard of care and investigational anticancer small molecules within a complex spheroid model of solid tumors. . Complex spheroids include a stromal component modeled by human endothelial cells (HUVEC) and fibroblasts modeled by human mesenchymal stem cells (MSCs). The concentration ranges selected for each drug and investigational agent were based upon clinically achievable concentrations if the clinical Cmax of the agent was known.\nCompounds. The drugs and investigational agents: novobiocin (NSC847541), ART-558 (NSC835418), RP-6685 (NSC848927), peposertib (NSC802822), ceralasertib (NSC780249), elimusertib (NSC800525), camonsertib (NSC841442), AZD-1390 (NSC803789), olaparib (NSC753686), talazoparib (NSC767125), rucaparib (NSC756644), sotorasib (NSC818433), MRTX-1133 (NSC836407), SN-38 (NSC673596), topotecan (NSC609699), epotoside (NSC141540), doxorubicin (NSC123127), gemcitabine (NSC613327), 5-fluorouracil (NSC19893), paclitaxel (NSC125973), vemurafenib (NSC761431), MSA-2 (NSC828583), SN-011 (NSC837082), adavosertib (NSC754352), prexasertib (NSC758257), carboplatin (NSC241240) and oxaliplatin (NSC266046), were obtained from the National Cancer Institute (NCI) Developmental Therapeutics Program Chemical Repository (21). The FDA-approved anticancer drug set is available from the Developmental Therapeutics Program at https://dtp.cancer.gov/organization/dscb/obtaining/. […] The stock solutions were prepared in dimethyl sulfoxide (DMSO, Sigma-Aldrich, St. Louis, MO, cat. D2650), except for the platinum compounds which were prepared in saline (Quality Biological, Gaithersburg, MD, cat. 114-055-101), at 800-fold the tested concentration and stored at -70 degrees C prior to their use. All drugs and investigational agents were tested over a range starting from a high concentration at or near the clinical Cmax and decreasing in half-log increments. If the clinical Cmax for an agent had not been determined, the highest concentration tested was 10 microM, except for SN-38, which was tested at a high concentration of 1 microM.\nCell Culture. All cells were maintained in an incubator at 37 degrees C and 5% CO2 with 95% humidity. The PDC lines were cultured according to standard operating procedures established by the NCI PDMR (https://pdmr.cancer.gov). Table 3 of the manuscript, lists the cell lines along with the number of the three cell types plated to form the mct-spheroids and media for tumor cell growth. After thawing, all PDC lines, except 997537-175-T-J1-PDC and 415267-285-R-J2-PDC, were cultured in Matrigel-coated flasks prepared with a working solution of 1X Ham's F-12 nutrient mix, without supplementation (Thermo Fisher Scientific, cat. 11765054), 100 U/mL penicillin-streptomycin (Thermo Fisher Scientific, cat. 15140122), and 2.5% Matrigel (Corning Inc., Corning, NY, cat. 354248) for the first three passages. The two PDC lines 997537-175-T-J1-PDC and 415267-285-R-J2-PDC were cultured on uncoated flasks. The 857933-349-R-J2-PDC line was cultured in 6C/Colon 1B media containing advanced DMEM/F-12 (Thermo Fisher Scientific, cat. 12634028), 10 mM HEPES (Thermo Fisher Scientific, cat. 15630080), 1X GlutaMAX supplement (Thermo Fisher Scientific, cat. 35050061), 0.1 mg/mL primocin (InvivoGen, San Diego, CA, cat. ant-pm-2), 10% defined fetal bovine serum, heat inactivated (HyClone Laboratories Inc., Logan, UT, cat. SH30070.03HI), 50% L-WRN conditioned media (ATCC, cat. CRL-3276), 1.25 mM N-Acetyl-L-cysteine (Sigma-Aldrich, cat. A9165), 10 mM nicotinamide (Sigma-Aldrich, cat. N0636), 1X B-27 supplement (Thermo Fisher Scientific, cat. 17504044), 1X N-2 supplement (Thermo Fisher Scientific, cat. […]"}
{"molecule": "C#Cc1c(F)ccc2cc(O)cc(-c3ncc4c(N5CC6CCC(C5)N6)nc(OCC56CCCN5CC(F)C6)nc4c3F)c12", "note": "(configuration not stated) + Cc1cccc(N(C)C(=O)C2C(O)CCN2c2nc(C)cc(C(F)(F)F)c2C#N)c1;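 further: spheroids exposed to compounds for 7 days before viability readout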;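 on viability, T/C: luminescence signal used as surrogate for viable cell content; 100% = DMSO vehicle control viability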", "values": [{"measurement": "IC50", "setting": "second compound 0.0316 µM", "value": "> 10", "unit": "µM"}, {"measurement": "IC50", "setting": "second compound 0.1 µM", "value": "> 10", "unit": "µM"}, {"measurement": "IC50", "setting": "second compound 0.316 µM", "value": "> 10", "unit": "µM"}, {"measurement": "IC50", "setting": "second compound 1 µM", "value": "> 10", "unit": "µM"}, {"measurement": "IC50", "setting": "second compound 3.16 µM", "value": "> 10", "unit": "µM"}, {"measurement": "IC50", "setting": "second compound 10 µM", "value": "> 10", "unit": "µM"}, {"measurement": "viability, T/C", "setting": "second compound 0.0316 µM, first compound 0.0316 µM", "value": 94.5, "unit": "%"}, {"measurement": "viability, T/C", "setting": "second compound 0.0316 µM, first compound 0.1 µM", "value": 112, "unit": "%"}, {"measurement": "viability, T/C", "setting": "second compound 0.0316 µM, first compound 0.316 µM", "value": 88, "unit": "%"}, {"measurement": "viability, T/C", "setting": "second compound 0.0316 µM, first compound 1 µM", "value": 91, "unit": "%"}, {"measurement": "viability, T/C", "setting": "second compound 0.0316 µM, first compound 3.16 µM", "value": 98, "unit": "%"}, {"measurement": "viability, T/C", "setting": "second compound 0.0316 µM, first compound 10 µM", "value": 88.8, "unit": "%"}, {"measurement": "viability, T/C", "setting": "second compound 0.1 µM, first compound 0.0316 µM", "value": 103, "unit": "%"}, {"measurement": "viability, T/C", "setting": "second compound 0.1 µM, first compound 0.1 µM", "value": 97.4, "unit": "%"}, {"measurement": "viability, T/C", "setting": "second compound 0.1 µM, first compound 0.316 µM", "value": 89.5, "unit": "%"}, {"measurement": "viability, T/C", "setting": "second compound 0.1 µM, first compound 1 µM", "value": 89, "unit": "%"}, {"measurement": "viability, T/C", "setting": "second compound 0.1 µM, first compound 3.16 µM", "value": 102, "unit": "%"}, {"measurement": "viability, T/C", "setting": "second compound 0.1 µM, first compound 10 µM", "value": 92.1, "unit": "%"}, {"measurement": "viability, T/C", "setting": "second compound 0.316 µM, first compound 0.0316 µM", "value": 96, "unit": "%"}, {"measurement": "viability, T/C", "setting": "second compound 0.316 µM, first compound 0.1 µM", "value": 94.6, "unit": "%"}, {"measurement": "viability, T/C", "setting": "second compound 0.316 µM, first compound 0.316 µM", "value": 107, "unit": "%"}, {"measurement": "viability, T/C", "setting": "second compound 0.316 µM, first compound 1 µM", "value": 92.1, "unit": "%"}, {"measurement": "viability, T/C", "setting": "second compound 0.316 µM, first compound 3.16 µM", "value": 87.3, "unit": "%"}, {"measurement": "viability, T/C", "setting": "second compound 0.316 µM, first compound 10 µM", "value": 90.7, "unit": "%"}, {"measurement": "viability, T/C", "setting": "second compound 1 µM, first compound 0.0316 µM", "value": 99.8, "unit": "%"}, {"measurement": "viability, T/C", "setting": "second compound 1 µM, first compound 0.1 µM", "value": 89.2, "unit": "%"}, {"measurement": "viability, T/C", "setting": "second compound 1 µM, first compound 0.316 µM", "value": 91.2, "unit": "%"}, {"measurement": "viability, T/C", "setting": "second compound 1 µM, first compound 1 µM", "value": 93.7, "unit": "%"}, {"measurement": "viability, T/C", "setting": "second compound 1 µM, first compound 3.16 µM", "value": 95.1, "unit": "%"}, {"measurement": "viability, T/C", "setting": "second compound 1 µM, first compound 10 µM", "value": 88.8, "unit": "%"}, {"measurement": "viability, T/C", "setting": "second compound 3.16 µM, first compound 0.0316 µM", "value": 87.1, "unit": "%"}, {"measurement": "viability, T/C", "setting": "second compound 3.16 µM, first compound 0.1 µM", "value": 84.5, "unit": "%"}, {"measurement": "viability, T/C", "setting": "second compound 3.16 µM, first compound 0.316 µM", "value": 89.6, "unit": "%"}, {"measurement": "viability, T/C", "setting": "second compound 3.16 µM, first compound 1 µM", "value": 95.9, "unit": "%"}, {"measurement": "viability, T/C", "setting": "second compound 3.16 µM, first compound 3.16 µM", "value": 85.1, "unit": "%"}, {"measurement": "viability, T/C", "setting": "second compound 3.16 µM, first compound 10 µM", "value": 89.6, "unit": "%"}, {"measurement": "viability, T/C", "setting": "second compound 10 µM, first compound 0.0316 µM", "value": 86.5, "unit": "%"}, {"measurement": "viability, T/C", "setting": "second compound 10 µM, first compound 0.1 µM", "value": 95.8, "unit": "%"}, {"measurement": "viability, T/C", "setting": "second compound 10 µM, first compound 0.316 µM", "value": 95.8, "unit": "%"}, {"measurement": "viability, T/C", "setting": "second compound 10 µM, first compound 1 µM", "value": 94.4, "unit": "%"}, {"measurement": "viability, T/C", "setting": "second compound 10 µM, first compound 3.16 µM", "value": 82.5, "unit": "%"}, {"measurement": "viability, T/C", "setting": "second compound 10 µM, first compound 10 µM", "value": 86.9, "unit": "%"}]}
